Measurements: ChEMBL document CHEMBL4382269, “Discovery of Potent, Efficient, and Selective Inhibitors of Phosphoinositide 3-Kinase δ through a Deconstruction and Regrowth Approach” (J Med Chem, 2018)

What was measured:
[1] = molecular target: Phosphatidylinositol 4,5-bisphosphate 3-kinase catalytic subunit gamma isoform (Homo sapiens, UniProt P48736); assay: Inhibition of PI3Kgamma (unknown origin) using PIP2 as substrate preincubated for 15 mins followed by substrate addition measured after 60 mins by HTRF method
Chain of Phosphatidylinositol 4,5-bisphosphate 3-kinase catalytic subunit gamma isoform (P48736 whole entry, canonical isoform): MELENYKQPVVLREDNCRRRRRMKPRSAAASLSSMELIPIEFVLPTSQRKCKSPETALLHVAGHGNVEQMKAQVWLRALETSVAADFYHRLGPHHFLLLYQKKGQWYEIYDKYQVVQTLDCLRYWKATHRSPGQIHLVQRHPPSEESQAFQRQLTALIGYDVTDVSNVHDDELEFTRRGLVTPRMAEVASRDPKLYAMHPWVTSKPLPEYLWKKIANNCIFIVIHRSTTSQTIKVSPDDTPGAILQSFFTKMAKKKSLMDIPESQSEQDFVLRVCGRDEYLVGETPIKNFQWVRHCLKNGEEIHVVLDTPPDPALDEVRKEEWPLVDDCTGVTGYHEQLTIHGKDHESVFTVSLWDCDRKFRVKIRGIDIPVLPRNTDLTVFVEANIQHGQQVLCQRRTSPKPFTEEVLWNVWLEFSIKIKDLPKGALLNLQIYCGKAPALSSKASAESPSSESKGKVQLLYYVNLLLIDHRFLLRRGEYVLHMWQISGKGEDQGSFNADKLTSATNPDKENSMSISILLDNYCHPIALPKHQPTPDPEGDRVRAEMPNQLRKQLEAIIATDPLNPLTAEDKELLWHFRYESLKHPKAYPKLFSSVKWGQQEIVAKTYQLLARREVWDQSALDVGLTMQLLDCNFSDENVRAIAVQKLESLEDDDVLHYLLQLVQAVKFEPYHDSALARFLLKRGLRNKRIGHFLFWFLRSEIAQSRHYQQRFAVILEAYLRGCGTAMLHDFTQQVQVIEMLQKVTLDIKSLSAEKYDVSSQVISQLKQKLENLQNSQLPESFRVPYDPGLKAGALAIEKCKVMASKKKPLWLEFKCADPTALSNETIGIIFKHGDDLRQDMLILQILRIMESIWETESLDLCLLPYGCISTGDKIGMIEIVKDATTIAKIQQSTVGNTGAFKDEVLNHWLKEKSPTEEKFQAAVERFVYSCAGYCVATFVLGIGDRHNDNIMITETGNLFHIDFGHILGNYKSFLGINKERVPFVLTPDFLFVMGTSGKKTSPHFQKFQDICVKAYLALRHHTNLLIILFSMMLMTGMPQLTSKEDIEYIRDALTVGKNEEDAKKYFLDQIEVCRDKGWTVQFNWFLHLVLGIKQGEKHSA

[2] = molecular target: Phosphatidylinositol 4,5-bisphosphate 3-kinase catalytic subunit beta isoform (Homo sapiens, UniProt P42338); assay: Inhibition of PI3Kbeta (unknown origin) using PIP2 as substrate preincubated for 15 mins followed by substrate addition measured after 60 mins by HTRF method
Chain of Phosphatidylinositol 4,5-bisphosphate 3-kinase catalytic subunit beta isoform (P42338 whole entry, canonical isoform): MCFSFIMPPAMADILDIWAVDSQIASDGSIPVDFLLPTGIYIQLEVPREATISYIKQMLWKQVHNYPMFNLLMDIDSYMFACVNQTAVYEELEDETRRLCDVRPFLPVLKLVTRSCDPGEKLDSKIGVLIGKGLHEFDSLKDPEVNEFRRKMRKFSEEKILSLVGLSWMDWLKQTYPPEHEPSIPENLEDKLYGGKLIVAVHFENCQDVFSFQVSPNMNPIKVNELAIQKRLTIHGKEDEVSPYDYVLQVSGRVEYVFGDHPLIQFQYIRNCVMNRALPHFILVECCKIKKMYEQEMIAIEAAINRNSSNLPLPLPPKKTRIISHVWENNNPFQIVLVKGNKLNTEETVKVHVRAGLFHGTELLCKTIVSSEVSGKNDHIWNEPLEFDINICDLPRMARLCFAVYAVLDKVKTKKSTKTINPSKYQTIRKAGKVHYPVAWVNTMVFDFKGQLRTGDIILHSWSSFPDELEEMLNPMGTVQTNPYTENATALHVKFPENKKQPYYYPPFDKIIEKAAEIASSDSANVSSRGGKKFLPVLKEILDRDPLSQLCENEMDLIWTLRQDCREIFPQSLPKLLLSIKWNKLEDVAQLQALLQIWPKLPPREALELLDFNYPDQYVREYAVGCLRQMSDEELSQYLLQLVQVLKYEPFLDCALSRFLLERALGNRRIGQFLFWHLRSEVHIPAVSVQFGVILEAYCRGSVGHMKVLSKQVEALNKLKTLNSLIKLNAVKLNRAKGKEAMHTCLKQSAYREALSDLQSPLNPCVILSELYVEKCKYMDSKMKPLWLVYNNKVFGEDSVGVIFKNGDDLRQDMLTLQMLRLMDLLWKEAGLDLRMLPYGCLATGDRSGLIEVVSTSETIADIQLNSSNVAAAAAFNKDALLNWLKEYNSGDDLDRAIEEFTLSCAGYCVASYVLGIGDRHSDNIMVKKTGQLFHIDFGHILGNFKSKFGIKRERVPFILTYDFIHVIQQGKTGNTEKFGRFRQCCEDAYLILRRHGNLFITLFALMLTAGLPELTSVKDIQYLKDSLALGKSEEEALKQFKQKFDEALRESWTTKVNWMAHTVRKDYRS

[3] = molecular target: T1, Phosphatidylinositol 4,5-bisphosphate 3-kinase catalytic subunit delta isoform (Homo sapiens, UniProt O00329); assay: Inhibition of PI3Kdelta (unknown origin) using PIP2 as substrate preincubated for 15 mins followed by substrate addition measured after 60 mins by HTRF method
T1 sequence (O00329 whole entry): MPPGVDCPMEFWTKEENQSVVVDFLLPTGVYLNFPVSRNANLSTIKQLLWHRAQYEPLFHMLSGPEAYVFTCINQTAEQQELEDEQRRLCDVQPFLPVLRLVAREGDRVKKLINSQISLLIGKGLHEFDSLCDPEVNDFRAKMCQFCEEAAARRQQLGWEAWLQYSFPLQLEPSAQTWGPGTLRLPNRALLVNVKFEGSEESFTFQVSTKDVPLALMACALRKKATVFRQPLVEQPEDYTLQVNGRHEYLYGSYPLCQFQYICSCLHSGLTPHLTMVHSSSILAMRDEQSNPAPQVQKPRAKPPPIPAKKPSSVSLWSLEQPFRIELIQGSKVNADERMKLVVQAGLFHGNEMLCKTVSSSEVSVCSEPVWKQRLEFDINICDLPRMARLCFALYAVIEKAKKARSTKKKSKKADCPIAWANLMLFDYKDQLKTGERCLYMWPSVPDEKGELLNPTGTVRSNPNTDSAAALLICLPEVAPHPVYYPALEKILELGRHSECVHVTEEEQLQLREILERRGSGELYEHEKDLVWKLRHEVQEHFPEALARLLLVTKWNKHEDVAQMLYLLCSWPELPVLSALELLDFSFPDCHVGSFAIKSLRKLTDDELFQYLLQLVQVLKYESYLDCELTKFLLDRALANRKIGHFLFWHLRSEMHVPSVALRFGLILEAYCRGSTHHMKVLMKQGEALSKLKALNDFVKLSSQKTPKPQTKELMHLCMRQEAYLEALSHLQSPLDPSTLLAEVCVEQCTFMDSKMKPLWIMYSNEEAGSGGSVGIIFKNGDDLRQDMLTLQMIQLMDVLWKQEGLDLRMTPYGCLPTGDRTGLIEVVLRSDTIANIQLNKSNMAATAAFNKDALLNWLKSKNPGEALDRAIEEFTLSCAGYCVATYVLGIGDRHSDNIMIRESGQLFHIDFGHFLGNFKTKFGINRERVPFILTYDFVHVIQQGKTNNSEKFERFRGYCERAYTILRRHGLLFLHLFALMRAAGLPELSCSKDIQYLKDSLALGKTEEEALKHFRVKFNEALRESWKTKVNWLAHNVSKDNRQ

[4] = molecular target: Phosphatidylinositol 4,5-bisphosphate 3-kinase catalytic subunit alpha isoform (Homo sapiens, UniProt P42336); assay: Inhibition of PI3Kalpha (unknown origin) using PIP2 as substrate preincubated for 15 mins followed by substrate addition measured after 60 mins by HTRF method
Chain of Phosphatidylinositol 4,5-bisphosphate 3-kinase catalytic subunit alpha isoform (P42336 whole entry, canonical isoform): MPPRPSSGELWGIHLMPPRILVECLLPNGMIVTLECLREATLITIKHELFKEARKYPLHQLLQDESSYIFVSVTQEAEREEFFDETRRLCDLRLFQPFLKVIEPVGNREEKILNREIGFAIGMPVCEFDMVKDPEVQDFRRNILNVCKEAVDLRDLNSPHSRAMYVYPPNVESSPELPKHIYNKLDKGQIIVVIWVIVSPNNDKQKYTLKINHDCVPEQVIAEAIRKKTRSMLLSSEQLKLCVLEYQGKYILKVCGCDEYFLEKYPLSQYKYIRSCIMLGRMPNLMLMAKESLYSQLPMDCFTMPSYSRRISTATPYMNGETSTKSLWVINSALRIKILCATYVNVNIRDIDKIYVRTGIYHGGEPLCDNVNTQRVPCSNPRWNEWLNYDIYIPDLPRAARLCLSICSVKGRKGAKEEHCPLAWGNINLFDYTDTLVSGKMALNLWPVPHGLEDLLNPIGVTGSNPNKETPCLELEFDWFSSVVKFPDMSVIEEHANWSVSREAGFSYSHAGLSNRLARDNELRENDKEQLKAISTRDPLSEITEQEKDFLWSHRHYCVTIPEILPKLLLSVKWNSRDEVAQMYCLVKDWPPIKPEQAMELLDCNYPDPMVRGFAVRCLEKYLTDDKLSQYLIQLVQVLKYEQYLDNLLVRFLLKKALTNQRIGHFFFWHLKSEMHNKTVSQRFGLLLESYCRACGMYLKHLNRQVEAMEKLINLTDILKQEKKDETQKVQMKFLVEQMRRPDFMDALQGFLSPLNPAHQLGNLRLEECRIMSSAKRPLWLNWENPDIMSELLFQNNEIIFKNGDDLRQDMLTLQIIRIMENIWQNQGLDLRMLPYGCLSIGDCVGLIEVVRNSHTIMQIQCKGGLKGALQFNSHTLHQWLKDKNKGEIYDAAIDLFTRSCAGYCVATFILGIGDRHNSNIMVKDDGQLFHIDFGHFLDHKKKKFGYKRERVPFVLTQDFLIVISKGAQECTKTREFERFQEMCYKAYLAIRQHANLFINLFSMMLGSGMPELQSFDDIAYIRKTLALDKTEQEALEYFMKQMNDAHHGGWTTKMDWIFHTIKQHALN

[5] = molecular target: Inhibitor of nuclear factor kappa-B kinase subunit alpha (Homo sapiens, UniProt O15111); assay: Inhibition of IKK1 (unknown origin)
[6] = molecular target: Tyrosine-protein kinase JAK2 (Homo sapiens, UniProt O60674); assay: Inhibition of JAK2 (unknown origin)
[7] = molecular target: Leucine-rich repeat serine/threonine-protein kinase 2 (Homo sapiens, UniProt Q5S007); assay: Inhibition of LRRK2 (unknown origin)
[8] = molecular target: Tyrosine-protein kinase BTK (Homo sapiens, UniProt Q06187); assay: Inhibition of BTK (unknown origin)
[9] = molecular target: Mitogen-activated protein kinase 14 (Homo sapiens, UniProt Q16539); assay: Inhibition of p38alpha (unknown origin)
[10] = molecular target: Rho-associated protein kinase 1 (Homo sapiens, UniProt Q13464); assay: Inhibition of ROCK1 (unknown origin)
[11] = molecular target: Tyrosine-protein kinase ITK/TSK (Homo sapiens, UniProt Q08881); assay: Inhibition of ITK (unknown origin)
[12] = molecular target: Tyrosine-protein kinase JAK3 (Homo sapiens, UniProt P52333); assay: Inhibition of JAK3 (unknown origin)
[13] = molecular target: Mitogen-activated protein kinase kinase kinase 5 (Homo sapiens, UniProt Q99683); assay: Inhibition of ASK1 (unknown origin)
Chain of Mitogen-activated protein kinase kinase kinase 5 (Q99683 whole entry): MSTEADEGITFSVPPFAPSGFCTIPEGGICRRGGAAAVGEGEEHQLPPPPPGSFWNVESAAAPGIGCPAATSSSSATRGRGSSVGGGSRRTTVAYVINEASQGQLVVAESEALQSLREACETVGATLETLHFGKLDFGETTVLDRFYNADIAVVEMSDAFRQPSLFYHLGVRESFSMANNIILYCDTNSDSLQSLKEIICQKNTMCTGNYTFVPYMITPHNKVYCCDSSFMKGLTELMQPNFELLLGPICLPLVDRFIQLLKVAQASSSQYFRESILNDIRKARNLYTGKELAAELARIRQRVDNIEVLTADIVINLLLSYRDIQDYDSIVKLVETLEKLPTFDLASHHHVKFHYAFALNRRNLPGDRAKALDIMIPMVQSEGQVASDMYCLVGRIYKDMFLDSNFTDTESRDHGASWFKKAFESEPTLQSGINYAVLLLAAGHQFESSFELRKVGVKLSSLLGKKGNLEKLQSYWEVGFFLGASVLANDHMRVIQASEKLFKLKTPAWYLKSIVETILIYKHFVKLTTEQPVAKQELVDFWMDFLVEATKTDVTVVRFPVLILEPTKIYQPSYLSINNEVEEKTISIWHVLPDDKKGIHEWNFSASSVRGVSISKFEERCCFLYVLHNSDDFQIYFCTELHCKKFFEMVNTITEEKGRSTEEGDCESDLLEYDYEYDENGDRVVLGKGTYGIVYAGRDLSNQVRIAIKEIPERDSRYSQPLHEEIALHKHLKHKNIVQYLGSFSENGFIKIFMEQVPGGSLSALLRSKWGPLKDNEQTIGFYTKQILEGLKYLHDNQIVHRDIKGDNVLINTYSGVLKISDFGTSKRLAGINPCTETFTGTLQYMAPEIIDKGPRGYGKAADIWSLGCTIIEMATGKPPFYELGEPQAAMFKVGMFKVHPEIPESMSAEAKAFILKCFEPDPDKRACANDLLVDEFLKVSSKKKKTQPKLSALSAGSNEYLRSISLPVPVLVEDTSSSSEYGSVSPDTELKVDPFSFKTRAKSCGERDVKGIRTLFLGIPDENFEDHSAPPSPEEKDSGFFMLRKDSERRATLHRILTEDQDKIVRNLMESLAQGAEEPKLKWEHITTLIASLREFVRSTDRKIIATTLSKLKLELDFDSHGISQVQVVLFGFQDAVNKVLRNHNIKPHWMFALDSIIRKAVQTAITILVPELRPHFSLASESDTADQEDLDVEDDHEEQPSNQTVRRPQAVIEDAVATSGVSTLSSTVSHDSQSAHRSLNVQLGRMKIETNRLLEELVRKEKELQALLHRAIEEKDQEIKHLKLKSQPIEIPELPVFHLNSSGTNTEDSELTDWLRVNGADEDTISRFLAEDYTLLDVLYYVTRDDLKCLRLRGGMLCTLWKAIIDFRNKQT

[14] = molecular target: Glycogen synthase kinase-3 beta (Homo sapiens, UniProt P49841); assay: Inhibition of GSK3B (unknown origin)
Chain of Glycogen synthase kinase-3 beta (P49841 whole entry): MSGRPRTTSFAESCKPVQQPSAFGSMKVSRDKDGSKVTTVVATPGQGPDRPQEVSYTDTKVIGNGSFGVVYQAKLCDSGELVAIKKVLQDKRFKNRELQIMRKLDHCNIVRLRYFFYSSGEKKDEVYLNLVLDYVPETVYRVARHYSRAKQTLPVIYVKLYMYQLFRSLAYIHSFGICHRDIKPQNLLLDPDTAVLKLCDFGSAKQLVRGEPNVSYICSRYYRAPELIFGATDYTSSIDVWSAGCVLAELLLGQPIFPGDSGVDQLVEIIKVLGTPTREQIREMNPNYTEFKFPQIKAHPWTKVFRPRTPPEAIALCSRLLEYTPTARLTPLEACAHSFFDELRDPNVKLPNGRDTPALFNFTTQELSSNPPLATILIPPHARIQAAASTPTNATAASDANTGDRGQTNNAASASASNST

Aurora kinase B = Aurora kinase B (Homo sapiens, UniProt Q96GD4); assay: Inhibition of Aurora B (unknown origin)
[15] = molecular target: Tyrosine-protein kinase Lck (Homo sapiens, UniProt P06239); assay: Inhibition of LCK (unknown origin)
[16] = molecular target: Mitogen-activated protein kinase 10 (Homo sapiens, UniProt P53779); assay: Inhibition of JNK3 (unknown origin)
[17] = molecular target: Tyrosine-protein kinase SYK (Homo sapiens, UniProt P43405); assay: Inhibition of SYK (unknown origin)
[18] = molecular target: Epidermal growth factor receptor (Homo sapiens, UniProt P00533); assay: Inhibition of EGFR (unknown origin)
[19] = molecular target: Inhibitor of nuclear factor kappa-B kinase subunit beta (Homo sapiens, UniProt O14920); assay: Inhibition of IKK2 (unknown origin)

Row | Compound | IC50 [1] [µM] | IC50 [2] [µM] | IC50 [3] [µM] | IC50 [4] [µM] | other results
1 | CS(=O)(=O)Nc1cc(-c2ccc3cn[nH]c3c2)cnc1Cl | 2.51 | 3.98 | 0.398 | 6.31 | 
2 | c1cc(-c2ccncc2)c2cc[nH]c2c1 | > 50.1 | > 50.1 | 79.4 | > 50.1 | 
3 | CS(=O)(=O)Nc1cc(-c2ccncc2)cnc1Cl | 3.98 | 0.794 | 0.251 | 6.31 | IC50 [5]: > 10 µM; IC50 [6]: > 10 µM; IC50 [7]: > 10 µM; IC50 [8]: > 10 µM; IC50 [9]: > 10 µM; IC50 [10]: > 10 µM; IC50 [11]: > 10 µM; IC50 [12]: > 10 µM; IC50 [13]: > 10 µM; IC50 [14]: > 10 µM; IC50 (Aurora kinase B): > 10 µM; IC50 [15]: > 10 µM; IC50 [16]: > 10 µM; IC50 [17]: > 10 µM; IC50 [18]: > 10 µM; IC50 [19]: > 10 µM
4 | c1cc(-c2nnc(CN3CCOCC3)o2)c2cn[nH]c2c1 | 25.1 | > 50.1 | 158 | > 50.1 | 
5 | O=S(=O)(Nc1cc(-c2ccccc2)cnc1Cl)c1ccccc1 | 12.6 | 15.8 | 1 | 31.6 | 
6 | O=S(=O)(Nc1cc(C2=CCOCC2)cnc1Cl)c1ccccc1 | 0.501 | 0.126 | 0.01 | 0.501 | 
